Assay results published in patent publication US20040072222A1, “Peptide analogues of myelin basic protein epitopes in the treatment of experimental autoimmune encephalomyelitis (eae) and multiple sclerosis (ms)” (priority 2003, published 2004).
“Also recorded” adds a separate entry of the source. Read-outs that look alike come from different tables or passages of the source. Where no end group is shown, it is not given here.

Tests used:
[1] = tested on: EAE in Lewis rats; assay: Induction-inhibition and assessment of EAE (clinical score); assay type: in vivo; details: for inhibition of MBP72-85-induced EAE (clinical signs) on co-injection: co-injected with MBP72-85, Lewis rats; for inhibition of MBP72-85-induced EAE on co-injection: analogue 500 μg co-injected with MBP72-85 25 μg, FIG. 2/3; for induction of EAE: injected subcutaneously in Lewis rats; for peak clinical score, day following the initial injection / recovery from EAE: injected subcutaneously in Lewis rats (section B2)
[2] = tested on: demyelination and inflammation in the spinal cord; assay: Histopathological examination of spinal cord sections (Luxol fast blue / Nuclear Fast Red); assay type: in vivo, Lewis rats; details: for spinal cord demyelination and inflammation on co-immunization with MBP72-85: day 15 after immunization
[3] = tested on: human peripheral blood T cells; assay: Activation and proliferation of human peripheral blood T cells; assay type: cell-based; details: for reversal of agonist effect on human T cell activation and proliferation: co-culturing of the cells with antagonist peptide; for biological activity in human peripheral blood T cells relative to linear analogue: compared with linear MBP72-85 / Ala81MBP72-85; for effect on human T cell activation and proliferation: agonist peptides, linear vs cyclic
[4] = tested on: EAE in Lewis rats; details: cited from earlier work

Substance: Gln^1-Lys^2-Ser^3-Gln^4-Arg^5-Ser^6-Gln^7-Ala^8-Glu^9-Asn^10-Pro^11-Val^12-NH2 [c-Ala^81MBP72-85]
- inhibition of MBP72-85-induced EAE (clinical signs) on co-injection [1]: completely prevented
- spinal cord demyelination and inflammation on co-immunization with MBP72-85 [2]: completely prevented
- reversal of agonist effect on human T cell activation and proliferation [3]: completely reversed
- biological activity in human peripheral blood T cells relative to linear analogue [3]: comparable

Substance: Val-His-Phe-Phe-Lys^91-Asn-Ile-Val-Thr-Ala^96-Arg-Thr-Pro^99 [cyclo-(91, 99) [Ala^96] MBP87-99]
- inhibition of MBP72-85-induced EAE on co-injection [1]: low inhibitory activity

Substance: Val-His-Phe-Phe-Arg^91-Asn-Ile-Val-Thr-Ala^96-Arg-Thr-Pro [[Arg^91,Ala^96]MBP87-99]
- inhibition of MBP72-85-induced EAE on co-injection [1]: completely prevented
- inhibition of MBP72-85-induced EAE (clinical signs) on co-injection [1]: completely prevented

Substance: QKSQRSQDENPV [MBP72-85, reference compound]
- complete recovery in all animals ([1]; 25 μg peptide): ≤ 18 days
- peak clinical score, day after the initial injection ([1]; 25 μg peptide): 13 days
- induction of EAE [1]: induced an acute monophasic disease; also recorded: induce EAE
- peak clinical score, day following the initial injection [1]: 15 days
- recovery from EAE [1]: eventual complete recovery in all animals
- spinal cord histopathology after immunization with the peptide alone ([2]; day 15 / peak of disease): extensive perivascular and parenchymal inflammation; also recorded: multiple perivascular infiltrates
- effect on human T cell activation and proliferation [3]: comparable effect
- induction of EAE ([4]; background, literature): induce EAE

Substance: Val^87-His-Phe-Phe-Arg^91-Asn-Ile-Val-Thr-Ala^96-Arg-Thr-Pro^99 [cyclo-(87, 99)[Arg^91,Ala^96]MBP87-99]
- inhibition of MBP72-85-induced EAE on co-injection [1]: strong inhibitor
- inhibition of MBP72-85-induced EAE (clinical signs) on co-injection [1]: completely prevented

Substance: Gln^1-Lys^2-Ser^3-Gln^4-Arg^5-Ser^6-Gln^7-Asp^8-Glu^9-Asn^10-Pro^11-Val^12-NH2 [c-MBP72-85]
- induction of EAE [1]: induce EAE
- peak clinical score, day following the initial injection [1]: 15 days
- recovery from EAE [1]: eventual complete recovery in all animals
- induction of EAE ([1]; listed as 1): comparable with that of linear agonist
- effect on human T cell activation and proliferation [3]: comparable effect
- biological activity in human peripheral blood T cells relative to linear analogue [3]: comparable
- induction of EAE ([4]; background, literature): comparable potency to MBP72-85

Substance: Gln-Lys-Ser-Gln-Arg-Ser-Gln-Ala^81-GluAsn-Pro-Val [Ala^81MBP72-85]
- suppression of EAE induced by cyclic analogue on co-injection ([1]; co-injection with the inducing cyclic analogue): completely suppressed
- spinal cord demyelination and inflammation on co-immunization with MBP72-85 [2]: complete absence of inflammation and demyelination
- reversal of agonist effect on human T cell activation and proliferation [3]: completely reversed
- prevention of clinical and histopathological manifestations of disease induced by c-MBP72-85 ([4]; Tselios et al 1999): prevented
- prevention of the induction of EAE by parent peptide MBP72-85 ([4]; background, literature): prevented the induction of EAE
